Data as given in patent US9687479B2, “Multisubstituted aromatic compounds as serine protease inhibitors” (VERSEON CORPORATION, priority 2013, dated 2017).

How the values were obtained:
Human KLKB1 = Human KLKB1 (Homo sapiens (Human), UniProt P03952); test: KLKB1 kallikrein activity inhibition assay (chromogenic substrate S-2302); format: biochemical
Summary of the method: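 Enzyme at a final 3 nM was assayed in 0.05 M Tris pH 7.4, 0.01 M NaCl and 0.2% PEG-8000 at room temperature, with compounds as ten-point threefold dilutions.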

Human thrombin = Human thrombin (Homo sapiens (Human), UniProt P00734); test: Thrombin protease activity inhibition assay (chromogenic substrate S-2238); format: biochemical; conditions: 3 nM thrombin, 125 μM S-2238, 10 min pre-incubation, RT
Summary of the method: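 Ten-point, three-fold serial dilutions of compound tested against 3 nM enzyme at RT in Tris buffer (0.05 M, pH 7.4) with 0.015 M NaCl and 0.01% PEG-8000.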

[1] = molecular target: Recombinant human tissue kallikrein (KLK1) (Homo sapiens (Human), UniProt P06870); test: KLK1 kallikrein activity inhibition assay (Pro-Phe-Arg-AMC substrate); format: biochemical
Protocol: The KLK1 kallikrein activity reported herein (e.g., Tables B and C) was obtained as follows. Recombinant human tissue kallikrein (KLK1) was obtained from R&D Systems. […] KLK1 enzyme is activated by incubating 0.5 mg/ml KLK1 combined with 0.1 μg/ml thermolysin in a buffer of 0.05 M Tres (pH 7.5), 0.15 M NaCl, and 0.01 M CaCl2 for one hour at 37° C. The thermolysin is then deactivated by the addition of equal parts 20 mM 1, 10 phenanthroline solution in water. The activated KLK1 solution is then added to CHES buffer (0.05 M CHES, 0.15 M NaCl, 0.01 M CaCl2, pH 10) for a final concentration of 5 nM along with the test article and incubated for 10 minutes. […] Substrate activation is read 10 minutes after substrate addition using a Synergy H1 multifunction plate reader (Biotek) programmed with a 360 nm excitation wavelength and a 480 nm emission wavelength. Inhibitor response was established by adding test compound as ten point, three-fold serial dilutions, as known in the art. The IC50 was calculated by plotting the percent (%) inhibition against compound concentration and fitting the data to a constrained four parameter sigmoidal curve, as known in the art.

[2] = Pharmacokinetics in mice (i.v. and p.o.); format: in vivo, male CD-1 mice; conditions: male, CD-1, mouse, in vivo
Protocol: Each compound is administered intravenously (i.v.) as a single dose via tail vein or orally (p.o.) as a single dose via gastric gavage to male CD-1 mice of nominal weights between 20 g and 26 g. Nominal doses are 1 mg/kg and 5 mg/kg for i.v. and p.o., respectively. In some examples (dose type A), both p.o. and i.v. doses are prepared by dissolving the test compound in 5% dimethyl acetamide and diluted in tetraethylene glycol for a final concentration of 0.25 mg/mL. In other examples (dose type B), i.v. doses are prepared by dissolving test compounds in 20% dimethyl acetamide, 40% polyethylene glycol 300 and 40% phosphate buffered saline, and p.o. doses are prepared by dissolving test compounds in carboxymethyl cellulose suspension (1% by weight) in water and 2.5% dimethyl acetamide.
Animals are housed in standard holding cages with food and water available ad libitum except for animals used for p.o. dosing which are fasted overnight prior to dosing. Samples are taken in triplicate via cardiac puncture at times prior to dosing and at 0.083 (i.v. only), 0.25, 0.5, 1, 2, 4, 8, and 24 hours after administration. Plasma is obtained by centrifuge and stored frozen until analyzed by LC-MS/MS using a Shimadzu VP System HPLC coupled to a Applied Biosystems MDS SCIEX API 3000 triple quadrapole MS. Assay results are calibrated using reference samples prepared in a range between 1.5 and 5000 ng/mL.
Pharmacokinetic parameters are calculated from mean concentration values using a non-compartmental analysis as described in the following and as apparent to those of ordinary skill in the art. Half-lives (t1/2) and elimination rate constants (λ) are determined by log linear regression using equal weighting on the last three finite sample time points. Concentration at time zero (C0) for the i.v. data is established by the extrapolation of log linear regression using equal weighting on the first three sample time points. Area under the curve (AUC) values are calculated using linear trapezoidal integration. Systemic clearance (CL) is calculated as the ratio of dosage and AUC. […] Percent oral bioavailability (% F) is determined from the ratio of i.v. and p.o. AUC values weighted by dosage.

[3] = Trans-corneal permeability in vitro across excised rabbit corneas (Franz chamber); format: in vitro ADME; conditions: excised rabbit cornea, compound in PBS, 37° C., four hours
Protocol: In this example, trans-corneal permeability of compounds are measured in-vitro across excised rabbit corneas. Excised rabbit cornea are acquired from Pel-Freez and delivered in DMEM culture media on ice overnight. The test apparatus is a curved 9 mm Franz chamber (Permegear) suitable for rabbit eyes. Test compound is prepared in PBS buffer. The compound solution is added to the donor chamber of the Franz chamber and the entire apparatus placed in an incubator at 37° C. for four hours. During incubation and at every subsequent hour, a sample is removed from the receiver chamber and analyzed by HPLC (Shimadzu Prominence) using a C18 column (Phenomenex 00E-4605-E0) in reverse phase with acetonitrile in water. The apparent permeability coefficient Papp (cm/s) is calculated as
where dM/dt is the flux (nmol/s) across the cell layers or cornea, A is the exposed surface area (cm^2) of the insert membrane of rabbit cornea, and C0 is the initial drug concentration (μM) in the donor compartment.

malignant breast tumors = conditions: treated mice, cited from earlier work

Human KLKB1, sequence (P03952 391-638 limits assumed): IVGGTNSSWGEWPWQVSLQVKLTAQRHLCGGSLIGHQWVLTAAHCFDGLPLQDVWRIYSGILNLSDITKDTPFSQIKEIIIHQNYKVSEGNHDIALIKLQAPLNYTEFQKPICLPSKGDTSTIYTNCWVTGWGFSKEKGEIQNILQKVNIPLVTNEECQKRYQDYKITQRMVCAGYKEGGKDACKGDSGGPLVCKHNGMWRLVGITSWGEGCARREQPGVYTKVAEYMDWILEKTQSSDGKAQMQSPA
Human KLKB1, sequence (P03952 20-390 partner limits assumed): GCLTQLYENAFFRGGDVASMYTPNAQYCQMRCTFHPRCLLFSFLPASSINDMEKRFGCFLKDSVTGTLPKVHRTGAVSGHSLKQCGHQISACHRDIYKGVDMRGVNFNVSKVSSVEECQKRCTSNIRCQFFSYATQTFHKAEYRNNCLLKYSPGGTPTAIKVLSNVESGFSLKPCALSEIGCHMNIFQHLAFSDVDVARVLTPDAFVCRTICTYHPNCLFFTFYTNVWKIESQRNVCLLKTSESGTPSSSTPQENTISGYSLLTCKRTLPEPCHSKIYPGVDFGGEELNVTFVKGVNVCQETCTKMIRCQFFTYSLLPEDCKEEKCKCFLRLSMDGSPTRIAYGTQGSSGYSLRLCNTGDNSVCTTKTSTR
Recombinant human tissue kallikrein (KLK1), sequence (P06870 25-262): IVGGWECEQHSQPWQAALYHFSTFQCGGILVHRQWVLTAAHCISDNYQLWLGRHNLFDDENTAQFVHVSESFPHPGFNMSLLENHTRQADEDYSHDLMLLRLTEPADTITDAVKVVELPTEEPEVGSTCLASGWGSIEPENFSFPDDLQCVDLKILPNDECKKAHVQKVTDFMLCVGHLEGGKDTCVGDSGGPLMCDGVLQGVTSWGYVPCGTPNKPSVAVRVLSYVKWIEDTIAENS

Row | Compound | IC50 (Human KLKB1; Table B) [µM] | IC50 (Human thrombin) [µM] | IC50 ([1]; Table B) [µM] | AUC ([2]; iv, 1 mg/kg) [ng·h/mL] | C0 ([2]; iv, 1 mg/kg) [ng/mL] | Vd ([2]; iv, 1 mg/kg) [L/kg] | clearance ([2]; iv, 1 mg/kg) [mL/min/kg] | half-life ([2]; iv, 1 mg/kg) [min] | AUC ([2]; po, 5 mg/kg) [ng·h/mL] | bioavailability ([2]; po, 5 mg/kg) [%] | half-life ([2]; po, 5 mg/kg) [min] | Papp at 4 h [3] [×10⁻⁶ cm/s] | IC50 (Human KLKB1; Table C) [µM] | IC50 ([1]; Table C) [µM] | reduction in tumor volume (malignant breast tumors; at 4 weeks) [%] | reduced tumor cells in the blood and liver micrometastases (malignant breast tumors)
1 | O=C(c1ccoc1)n1nc(-c2ccc[nH]c2=O)cc1NCc1ccc(Cl)s1 [Cmpd 4, 3-(5-[(5-chlorothiophen-2-yl)methyl]amino-1-[(furan-3-yl)carbonyl]-1H-pyrazol-3-yl)-1,2-dihydropyridin-2-one] | 1 to 10 | – | 10 to 100 | 100 | 300 | 10 | 167 | 60 | 300 | 60 | 360 | 2.5 | – | – | – | –
2 | COc1ccccc1C(=O)n1nc(-c2ccccn2)nc1NCc1ccc(Cl)s1 [Cmpd 22] | – | – | – | – | – | – | – | – | – | – | – | 5.7 | < 0.1 | 10 to 100 | – | –
3 | CCCCCCOC(=O)N=C(N)c1ccc(NCc2nc3cc(C(=O)N(CCC(=O)OCC)c4ccccn4)ccc3n2C)cc1 [dabigatran etexilate] | – | – | – | – | – | – | – | – | – | – | – | – | – | – | 50 | 50-60%
4 | COCCn1cccc(-c2cc(NCc3ccc(Cl)s3)n(C(=O)C3(C)CCOCC3)n2)c1=O [Cmpd 149, 3-(5-[(5-chlorothiophen-2-yl)methyl]amino-1-[(4-methyloxan-4-yl)carbonyl]-1H-pyrazol-3-yl)-1-(2-methoxyethyl)-1,2-dihydropyridin-2-one] | 1 to 10 | > 100 | > 100 | – | – | – | – | – | – | – | – | – | – | – | – | –

Second part, led by results:

Row | IC50 (Human KLKB1; Table B) [µM] | IC50 (Human thrombin) [µM] | IC50 ([1]; Table B) [µM] | AUC ([2]; iv, 1 mg/kg) [ng·h/mL] | C0 ([2]; iv, 1 mg/kg) [ng/mL] | Vd ([2]; iv, 1 mg/kg) [L/kg] | clearance ([2]; iv, 1 mg/kg) [mL/min/kg] | half-life ([2]; iv, 1 mg/kg) [min] | AUC ([2]; po, 5 mg/kg) [ng·h/mL] | bioavailability ([2]; po, 5 mg/kg) [%] | half-life ([2]; po, 5 mg/kg) [min] | Papp at 4 h [3] [×10⁻⁶ cm/s] | IC50 (Human KLKB1; Table C) [µM] | IC50 ([1]; Table C) [µM] | Compound | reduction in tumor volume (malignant breast tumors; at 4 weeks) [%] | reduced tumor cells in the blood and liver micrometastases (malignant breast tumors)
5 | 1 to 10 | < 0.1 | 10 to 100 | 50 | 200 | 5 | 167 | 18 | 20 | 8 | > 18 | – | – | – | O=C(c1ccoc1)n1nc(-c2cccn(Cc3ccco3)c2=O)cc1NCc1ccc(Cl)s1 [Cmpd 26, 3-(5-[(5-chlorothiophen-2-yl)methyl]amino-1-[(furan-3-yl)carbonyl]-1H-pyrazol-3-yl)-1-(furan-2-ylmethyl)-1,2-dihydropyridin-2-one] | – | –
6 | 1 to 10 | < 0.1 | 10 to 100 | 100 | 400 | 5 | 133 | 30 | 80 | 10 | 36 | – | – | – | Cn1cccc(-c2cc(NCc3ccc(Cl)s3)n(C(=O)c3ccoc3)n2)c1=O [Cmpd 23, 3-(5-[(5-chlorothiophen-2-yl)methyl]amino-1-[(furan-3-yl)carbonyl]-1H-pyrazol-3-yl)-1-methyl-1,2-dihydropyridin-2-one] | – | –
7 | 0.1 to 1 | < 0.1 | 10 to 100 | 40 | 100 | 6 | 167 | 18 | 10 | 9 | > 18 | – | – | – | O=C(c1ccoc1)n1nc(-c2cccn(Cc3ccccn3)c2=O)cc1NCc1ccc(Cl)s1 [Cmpd 25, 3-(5-[(5-chlorothiophen-2-yl)methyl]amino-1-[(furan-3-yl)carbonyl]-1H-pyrazol-3-yl)-1-(pyridin-2-ylmethyl)-1,2-dihydropyridin-2-one] | – | –
8 | 1 to 10 | < 0.1 | > 100 | – | – | – | – | – | – | – | – | – | – | – | COc1ccc(C(=O)n2nc(-c3cccn(Cc4cccnc4)c3=O)cc2NCc2ccc(Cl)s2)c(OC)c1 [Cmpd 126, 3-(5-[(5-chlorothiophen-2-yl)methyl]amino-1-[(2,4-dimethoxyphenyl)carbonyl]-1H-pyrazol-3-yl)-1-(pyridin-3-ylmethyl)-1,2-dihydropyridin-2-one] | – | –
